These results are taken from PMC11106675, “Synthesis of 1,4-azaphosphinine nucleosides and evaluation as inhibitors of human cytidine deaminase and APOBEC3A” (Beilstein Journal of Organic Chemistry, 2024).

Data set [1] has as its target T1, human cytidine deaminase (hCDA) (Homo sapiens, UniProt P32320).
T1 construct: purchased Sigma-Aldrich SRP6372; host or cells: E. coli
Put plainly: UV kinetic assay of hCDA-catalysed 2'-deoxycytidine deamination. The data set is classed as biochemical. Conditions: for Ki: substrate dC, competitive inhibition assumed. The procedure:
We monitored the hCDA-catalysed deamination of dC at 286 nm and analysed the kinetic profiles at various inhibitor concentrations using a global regression analysis of the kinetic data using Lambert’s W function. This method provides better estimates for the Michaelis–Menten constant (KM) and maximum velocity (Vmax) than nonlinear regression analysis of the initial rate (V0). […] Then, KM for the substrate and Ki for each inhibitor were calculated, assuming competitive nature of the inhibitors (Table 1).
We assumed that protonation of Va might result in some inhibition of hCDA. […] This means that the pH value of the assay should be close to pH 1.5 to see any meaningful effect of partially protonated compound Va, but hCDA would be denatured at this pH value. By lowering the pH value to 6.0, dZ (IIc) started to lose potency against hCDA (Table 1), which might be a result of protonation of the pyrimidine ring in dZ (IIc). […] At this pH value, less than 1 in 1,000 molecules of Va might be protonated, which could mean that protonated acid Va is a potent hCDA inhibitor.
Protein expression and purification
Recombinant human cytidine deaminase (hCDA) expressed in E.Coli was purchased form Sigma-Aldrich, product No SRP6372. […]
UV kinetic assay of hCDA-catalysed 2'-deoxycytidine
UV spectroscopy was used to monitor hCDA-catalysed deamination of 2'-deoxycytidine at 286 nm in 100 mM NaCl, 50 mM phosphate buffer at 25 °C at various pH as mentioned in the text. Cary 300 Bio UV-vis spectrometer from Varian was used. Enzymatic reactions were performed in a q uartz cuvette (0.1 cm). Deamination of 2'-deoxycytidine leads to a decrease in absorption at 286 nm (Figure […]
Figure S10. hCDA (27nM) catalysed deamination of 2'-deoxycitidine (⁓1.5 mM) in the absence (plus) and presence of 5 µM 2'-deoxyzebularine (IIc, asterisk) monitored by measuring absorbance at 286 nm over time in 100 mM NaCl, 1 mM TCEP, 50 mM phosphate buffer at 25 °C, at pH 7.4.
The uninhibited deamination (pluses, Figure S10) and the inhibited reaction start at about the same speed. As the reaction progresses, the inhibited reaction becomes slower, as its observed KM is larger than in the uninhibited case. In order to be able to visualize the fitted curves, only every 5th data point is plotted. The data was then fitted using Gnuplot to the integrated Michaelis Menten equation [10]: […]
(1 picture or pasted object on this page, not shown here) […]
where mm(t) calculates the current substrate concentration with respect to the time, t. The four parameters which are fitted are KM and vmax, the Michaelis-Menten constants, c is the initial substrate concentration and d is a baseline correction parameter. A summary of the measured inhibition […]
An increase in concentration of an inhibitor in enzymatic reaction leads to an increase in the observed KM value. The plot of observed KM values versus inhibitor concentration (Figures S11–S13) was then fitted with linear regression (y = ax + b) to derive the inhibition constant (Ki) using the following […]
Uncertainty of Ki was calculated using error-propagation method.
Figure S11. A plot of observed KM versus various concentration of dZ (IIc) in hCDA (27 nM) catalysed deamination of 2'-deoxycitidine in 100 mM NaCl, 1 mM TCEP, 50 mM phosphate buffer at 25 °C, at pH 7.4. […]

The nature of data set [2]: Stability in aqueous solution (NMR samples). The data set is classed as physicochemical. Conditions: for stability in sodium phosphate buffer: pH 7.0, NMR samples, several days. The text has this:
Catalytic hydrogenation is usually used for the removal of benzyl protecting groups. However, standard hydrogenation conditions using 10% Pd/C led to reduction of the C=C double bond in the nucleobase, providing nucleoside 24 (Scheme 3). To circumvent this problem, we used poisoned Pd catalyst (Lindlar’s catalyst, 5% Pd/CaCO3/3% Pb) and obtained the desired nucleoside 18. Individual anomers of nucleosides 18 and 24 were separated on a C18 column using a gradient of CH3CN in H2O. Removal of toluoyl groups was accomplished in aq NH3, providing pure α- and β-nucleoside of Va and Vc, respectively, carrying a negatively charged phosphinic acid group.

The subject of data set [3] is A3 enzymes. Details: method as in PMID 30418757. Conditions: as the free nucleoside; cited from earlier work.
A short description of data set [4]: Estimation of pKa from change of λmax as a function of pH. The format is physicochemical. Conditions: estimated from change in λmax as a function of pH. The protocol: Figure S6. UV-vis spectra of compounds Va (A) and Vb (B) at 100 µM in 20 mM phosphate buffer, containing 10 %
Estimation of pKa of nucleoside Va
A change of λmax of nucleoside Va as a function of pH of the solution was plotted (Figure below) and
Figure S7. Change in λmax of nucleoside Va as a function of pH.
(1 picture or pasted object on this page, not shown here)

A word on the Ki: it is a measure of affinity in units of concentration, obtained from inhibition or displacement. Broadly, the Km is the substrate concentration at which the rate is half of its maximum. Usually pKa stands for the pH at which an ionisable group is half protonated.

Read-outs that look alike come from different tables or passages of the source.

T1 sequence (P32320 whole entry): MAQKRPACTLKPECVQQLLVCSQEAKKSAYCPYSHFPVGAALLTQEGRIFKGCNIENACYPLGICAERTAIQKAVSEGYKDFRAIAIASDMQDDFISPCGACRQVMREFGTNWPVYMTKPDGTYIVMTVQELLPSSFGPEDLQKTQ

On to `NP1(=O)C=CN(C2CC(O)C(CO)O2)C(=O)C1` (stereo not drawn) [β-anomer of Vb], for which, in data set [1] (pH 7.4), the Km/Ki amounted to 30. Moreover, in data set [1] (pH 7.4, 25 °C, read-out: Ki), the Ki was 8 ± 1.9 µM.
Consider `O=C1CP(=O)(O)C=CN1C1CC(O)C(CO)O1` (stereo not drawn) [β-anomer of Va], for which the Ki was 560 ± 100 µM in data set [1] (pH 4.7, 25 °C, read-out: Ki); “no inhibition” in data set [1] (pH 6.0, 25 °C); “no inhibition” in data set [1] (pH 7.4, 25 °C).
On to `O=C1CP(=O)(O)CCN1C1CC(O)C(CO)O1` (stereo not drawn) [Vc], for which the “stability in sodium phosphate buffer” value in data set [2] is listed as “no decomposition”.
With `Nc1ccn([C@H]2C[C@H](O)[C@@H](CO)O2)c(=O)n1` [dC, 2'-deoxycytidine, reference compound], the Michaelis constant (Km) in data set [1] (pH 7.4, fitted in the experiment with inhibitor dZ (IIc), read-out: Km of dC) was 260 ± 40 µM.
With `O=c1ncccn1[C@H]1C[C@H](O)[C@@H](CO)O1` [dZ (IIc), 2'-deoxyzebularine, reference compound], the “inhibition of A3 enzymes” value in data set [3] is recorded as “does not inhibit”. In addition, the Km/Ki worked out at 5.5 in data set [1] (pH 6.0) and 24 in data set [1] (pH 7.4). Besides, the Ki in data set [1] (pH 6.0, 25 °C, read-out: Ki) was found to be 49 ± 13 µM.
For `O=C1CP(=O)(O)C=CN1C1CC(O)C(CO)O1` (stereo not drawn) [Va], in data set [4], the pKa is at most 1.5. In data set [1] (pH 7.4, 25 °C), the inhibitory constant (Ki) result is reported as “lack of inhibition”. Also, the “stability in sodium phosphate buffer” value in data set [2] is given as “no decomposition”. For the same compound, in data set [2] (pH 7.4), the stability in water result is recorded as “excellent stability”.
